One data set addresses Taq polymerase (Thermus aquaticus, UniProt P19821). The following applies: 95-97° C.; cited from earlier work.
The target in data set [1] is T1, Klenow DNA polymerase (Escherichia coli, UniProt P00582).
T1 construct: Klenow fragment of DNA polymerase I; purchased MBI Fermentas
Put plainly: Klenow DNA polymerase activity assay at 37° C. The data set is classed as biochemical. As to conditions: for effect on Klenow polymerase activity: 1.0M additive, separate experiment, data not shown; for effect on Klenow DNA polymerase activity: 5.0M L-proline, 37° C., 6.7, 10.0 and 15.0 mM MgCl2. The procedure: (§1) Klenow fragment (0.1 units) was added to the microtubes with reaction mixture pre-heated to 37° C., and following 7.5 minutes incubation at 37° C. (a time-point within the region of linear kinetics determined in a separate experiment, not shown), the reaction microtubes were placed on ice, and the reaction was stopped by addition of 12 μl of 50 mM EDTA and then applied on strips of chromatographic paper (Whatman No. 3). Strips were washed three times by cold TCA 10%, dried and the radioactivity was counted.

The test system of a further data set is DNA. The following applies: for each 10% increase in glycerol concentration; cited from earlier work.
The target in the next data set is T7 DNA polymerase (Escherichia phage T7, UniProt P00581). As to conditions: 40% formamide; cited from earlier work.
In data set [2] the target is T2, Taq DNA polymerase (Thermus aquaticus, UniProt P19821).
T2 construct: purchased MBI Fermentas
As to conditions: DMSO in 10% concentration; cited from earlier work.

Another data set relates to mammalian cells. As to conditions: cited from earlier work.
Data set [3] addresses T2, Taq DNA polymerase. Put plainly: Remaining activity of Taq polymerase after incubation at elevated temperatures. As to conditions: for remaining Taq polymerase activity: 1M additive. In kind it is biochemical. The procedure:
THP(B), THP(A) or glycerol were added from 3M stock solutions (pH 8.8 at 25° C.). The reaction mixtures were overlaid with paraffin oil and incubated at 95° C. or 97° C. Aliquotes (7.5 μl) were taken for polymerase activity assay at different periods of time.

Another data set relates to animals. The following applies: cited from earlier work.
For a further data set, the system named is poly(dA-dT). The experiment in a line: DNA melting (absorbance at 260 nm), poly(dA-dT). The procedure: (§2) DNA melting studies were conducted in a buffer (1 ml) containing 5.0 mM K2HPO4 and 0.1 mM Na2EDTA at pH 7.5. […] DNA samples were adjusted to O.D260=0.2 and incubated overnight at 37° C. before use, as previously described (Rees et al., 1993). […] The increase in absorbance at 260 nm was monitored in Hewlett Packard 9450A diode array spectrophotometer attached to a temperature programmer and controller. Both the sample and the reference cells were heated together at a rate of 0.5° C./min and the net absorbance was recorded after every 0.5° C. increase. The Tms were determined graphically from the midpoints of the absorbance versus temperature profile.

A further data set deals with calf thymus DNA (42% GC). The experiment in a line: DNA melting (absorbance at 260 nm), calf thymus DNA. As to conditions: 62° C. in aqueous solution. The procedure: as §2
Data set [4] concerns DNAs of varying base compositions. Put plainly: DNA melting (absorbance at 260 nm), DNAs of varying base compositions. Here is the method:
as §2

In data set [5] the test system is [d(GCTTAAGC)]2 (SEQ ID NO:2). The experiment in a line: Thermal transition of short oligonucleotide by 1H NMR chemical shift. As to conditions: for Tm: DNA alone 48.0. Here is the method: (§3) ^1H NMR measurements were carried out on a Bruker AMX 400 NMR MHZ spectrometer at 400.13 MHZ (equipped with an Aspect 300 control). For the ^1H NMR measurements, 1.0 mM DNA oligonucleotides were dissolved in 0.5 ml phosphate buffer solution (pH 7.2) in D2O (20 mM, for [d(ATGCAT)]2 (SEQ ID NO:1) and 40 mM for [d([…])]2 (SEQ ID NO:2) containing 50 mM NaCl and 0.1 mM EDTA. The solutions were lyophilized and then redissolved in 0.5 ml D2O (99.96%), heated to 65 EC and gradually cooled to 5 EC, and then degassed with argon at room temperature.
(§4) The thermal transitions of the short oligonucleotides [d(ATGCAT)]2 (SEQ ID NO:1) (FIG. 4A) and [d([…])]2 (SEQ ID NO:2) (FIG. 4B) were studied in the absence (open squares) and presence of 0.5M (open circles) and 1.0M (filled squares) THP(B). NMR chemical shift changes of the C4H5 proton of [d(ATGCAT)]2 (SEQ ID NO:1) and of the G1H8 proton of [d([…])]2 (SEQ ID NO:2) were measured as a function of increasing temperatures as described in Materials and Methods section (iii).

The test system of data set [6] is [d(ATGCAT)]2 (SEQ ID NO:1). The data set is described as above. The following applies: for Tm: DNA alone 31.5. The procedure:
as §3, §4

Data set [7] deals with 349 b.p. fragment (66.5% GC content) from Halobacterium marismortui genomic DNA. Put plainly: PCR with THP(B) using Taq DNA polymerase. In kind it is biochemical. The procedure:
MgCl2 concentrations of 1.0 mM and 1.75 mM were used in the absence and presence of THP(B), respectively, added from a 3M stock solution (pH 8.8 at 25° C.). […] (primer extension).
PCR reaction was performed by Taq DNA polymerase as described in Materials and Methods, section (vii), using as a template whole genomic DNA of Halobacterium marismortui (66.5% GC) and the 28-mer primers 1 and 2 described in section (i).

Data set [8] concerns Micrococcus lysodeikticus DNA (72% GC). As to conditions: 6.2M proline. Here is the method:
as §2

Data set [9] concerns 349 b.p. fragment (66.5% GC) from Halobacterium marismortui genomic DNA. As to conditions: 4.0M proline. The procedure:
PCR was performed in 25 μl reaction mixture containing 250 ng of Halobacterium marismortui genomic DNA template, 0.12 nM of each 30-mer oligonucleotide primers 5 and 6 described in section (i) above, 0.3 μl of Klentaq1 and Pfu (or Vent) enzymes mixture, prepared as described (Barnes, 1994), 200 μM of each dNTP, in PCR buffer containing: 10 mM Tris-HCl (pH 8.3 at 25° C.) and 50 mM KCl. […] Reaction mixtures were preheated for 1 min at their respective denaturation temperatures, except for reactions performed at Td 95° C., that were preheated for 1 min at 94° C., and then subjected to 35 thermal cycles as follows: (I) 30 sec incubation at 72-95° C., as indicated in each experiment (denaturation step); (ii) 90 sec incubation at 37-55° C., as indicated in each experiment (primer annealing step); and (iii) 7 min incubation at 63-69° C., as indicated in each experiment (primer extension).
Reaction mixtures were preheated for 1 min at their respective denaturation temperatures (77° C. and 75° C.), and then subjected to 35 thermal cycles as follows: (i) 30 sec incubation at 77° C. or 75° C. (denaturation step); (ii) 90 sec incubation at 44° C. (primer annealing step); and (iii) 7 min incubation at 65° C. (primer extension).

Data set [10] has the same test system. As to conditions: PCR with 10-15 units Klenow, denaturation 70° C., FIG. 12.
For data set [11] the test system is unchanged. The following applies: 1.0M proline. Here is the method: PCR was performed in 25 μl reaction mixture containing 3 ng of Halobacterium marismortui genomic DNA template, 0.12 nM of each 28-mer oligonucleotide primers 3 and 4 described in section (i) above, 0.5 units of Taq DNA polymerase, 200 μM of each dNTP, in PCR buffer containing: 10 mM Tris-HCl (pH 8.8 at 25° C.), 50 mM KCl, 0.08% Nonidet P40. […] Reaction mixtures were preheated for 3 min at their respective denaturation temperatures, except for reactions performed at Td 95° C., that were preheated for 3 min at 94° C., and then subjected to 35 thermal cycles as follows: (I) 30 sec incubation at 91-95° C., as indicated in each experiment (denaturation step); (ii) 90 sec incubation at 55° C. (primer annealing step); and (iii) 60 sec incubation at 72° C. (primer extension).

In data set [12] the target is T1, Klenow DNA polymerase. Put plainly: Remaining activity of Klenow DNA polymerase after incubation at 65° C. The following applies: 5M proline. The data set is classed as biochemical. Here is the method: as §1
The microtubes were vortexed and Klenow enzyme was added to the samples. The Klenow DNA polymerase activity assay was performed as described in section (iv) above at 6.7 mM concentration of MgCl2. To each aliquot (5 μl) 20 μl of stock solution containing all other components of the assay were added, making a total reaction volume of 25 μl and a 5-fold dilution of the aliquots.

Where [13] appears, read: 30 min incubation at 97° C., 10% without additives.
[14] abbreviates: 60 min incubation at 97° C., 5% or less without additives.

Values joined by “and” are separate entries in the source; they are usually repeats but may differ in a detail not shown here. Equal values may be shown once. “Also recorded” adds a separate entry of the source. Read-outs that look alike come from different tables or passages of the source.

Data on 7 compounds can be found in patent publication US7387878B2, “Methods for DNA amplification and sequencing” (Yeda Research and Development Co. Ltd., priority 1998, dated 2008).

T1 sequence (P00582 324-928): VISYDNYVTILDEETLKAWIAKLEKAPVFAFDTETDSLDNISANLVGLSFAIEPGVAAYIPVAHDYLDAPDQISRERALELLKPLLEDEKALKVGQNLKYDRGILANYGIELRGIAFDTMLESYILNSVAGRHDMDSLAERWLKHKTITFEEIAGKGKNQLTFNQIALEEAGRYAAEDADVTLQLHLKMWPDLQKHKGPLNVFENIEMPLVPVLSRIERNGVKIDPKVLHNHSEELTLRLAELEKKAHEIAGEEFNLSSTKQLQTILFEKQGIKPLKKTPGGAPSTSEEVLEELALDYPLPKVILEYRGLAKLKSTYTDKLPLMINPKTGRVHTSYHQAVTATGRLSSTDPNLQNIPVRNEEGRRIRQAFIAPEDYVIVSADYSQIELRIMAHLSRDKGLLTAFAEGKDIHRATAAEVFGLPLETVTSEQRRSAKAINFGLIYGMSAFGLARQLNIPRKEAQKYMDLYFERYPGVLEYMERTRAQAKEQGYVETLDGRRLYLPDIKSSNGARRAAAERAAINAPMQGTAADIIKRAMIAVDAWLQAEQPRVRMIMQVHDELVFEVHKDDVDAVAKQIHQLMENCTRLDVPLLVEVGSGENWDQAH
T2 sequence (P19821 whole entry): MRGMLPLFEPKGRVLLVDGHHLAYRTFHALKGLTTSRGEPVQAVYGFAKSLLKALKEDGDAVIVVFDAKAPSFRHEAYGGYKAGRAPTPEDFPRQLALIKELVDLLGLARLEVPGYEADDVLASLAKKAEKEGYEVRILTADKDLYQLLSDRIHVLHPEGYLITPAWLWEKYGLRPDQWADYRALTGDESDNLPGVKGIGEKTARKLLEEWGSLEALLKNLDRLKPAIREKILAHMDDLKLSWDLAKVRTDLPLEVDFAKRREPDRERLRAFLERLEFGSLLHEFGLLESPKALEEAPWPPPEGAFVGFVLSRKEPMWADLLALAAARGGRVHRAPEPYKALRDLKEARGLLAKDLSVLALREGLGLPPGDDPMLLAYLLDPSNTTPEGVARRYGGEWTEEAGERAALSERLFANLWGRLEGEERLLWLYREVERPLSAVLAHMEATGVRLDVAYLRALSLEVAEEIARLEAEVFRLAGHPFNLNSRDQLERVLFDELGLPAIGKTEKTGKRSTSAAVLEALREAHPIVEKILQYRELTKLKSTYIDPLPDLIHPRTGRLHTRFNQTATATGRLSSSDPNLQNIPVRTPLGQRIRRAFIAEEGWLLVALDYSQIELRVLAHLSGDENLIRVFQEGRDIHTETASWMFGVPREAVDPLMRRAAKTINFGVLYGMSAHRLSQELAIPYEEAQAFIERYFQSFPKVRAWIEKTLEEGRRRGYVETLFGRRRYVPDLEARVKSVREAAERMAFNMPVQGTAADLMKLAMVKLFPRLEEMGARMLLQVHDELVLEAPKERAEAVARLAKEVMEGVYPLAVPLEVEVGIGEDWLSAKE
Sequence of Taq polymerase (P19821 whole entry): as above
Sequence of T7 DNA polymerase (P0AA25 2-109): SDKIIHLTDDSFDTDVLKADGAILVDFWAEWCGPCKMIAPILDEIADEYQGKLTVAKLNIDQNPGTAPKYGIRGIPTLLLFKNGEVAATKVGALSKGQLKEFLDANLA
Sequence of T7 DNA polymerase (P00581 whole entry): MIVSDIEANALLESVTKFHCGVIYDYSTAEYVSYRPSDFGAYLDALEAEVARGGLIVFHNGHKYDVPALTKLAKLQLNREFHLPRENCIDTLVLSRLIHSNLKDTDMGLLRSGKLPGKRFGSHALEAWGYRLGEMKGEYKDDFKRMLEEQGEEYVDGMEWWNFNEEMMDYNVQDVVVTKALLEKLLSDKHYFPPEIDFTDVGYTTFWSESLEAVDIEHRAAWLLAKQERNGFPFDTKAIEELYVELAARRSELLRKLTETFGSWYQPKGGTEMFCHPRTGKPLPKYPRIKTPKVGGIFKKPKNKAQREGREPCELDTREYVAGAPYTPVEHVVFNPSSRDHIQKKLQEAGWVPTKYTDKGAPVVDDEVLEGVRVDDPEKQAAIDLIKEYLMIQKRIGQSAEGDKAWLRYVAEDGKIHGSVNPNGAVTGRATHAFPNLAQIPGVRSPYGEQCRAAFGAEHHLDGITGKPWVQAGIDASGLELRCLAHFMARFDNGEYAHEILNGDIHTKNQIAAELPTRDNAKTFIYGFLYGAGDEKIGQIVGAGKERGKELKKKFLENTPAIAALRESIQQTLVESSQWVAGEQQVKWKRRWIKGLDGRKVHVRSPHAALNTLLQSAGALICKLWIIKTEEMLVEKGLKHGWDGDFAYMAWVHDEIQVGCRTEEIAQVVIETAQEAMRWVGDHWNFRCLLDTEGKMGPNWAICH

For the compound `OCC(O)CO` [glycerol], at Taq polymerase, the “thermal stability of Taq polymerase” value is “doubling”. The “effect on Klenow polymerase activity” value on Klenow DNA polymerase [1] was “stimulative”. Besides, the “lowering of DNA melting temperatures” value with DNA was 2.5-3 °C.

As for `NC=O` [formamide], the “T7 DNA polymerase activity” value at T7 DNA polymerase was “completely inactive”.

For `C[S+](C)[O-]` [DMSO], on Taq DNA polymerase [2], the “inhibition of Taq DNA polymerase activity” value is recorded as 53%.

Turning to `CC1=NCC(O)C(C(=O)O)N1` (stereo not shown) [THP(A), 2-methyl-4-carboxy-5-hydroxy-3,4,5,6-tetrahydropyrimidine], the toxicity result with mammalian cells (mammalian cells) and with animals (animals) was “not toxic” each time. In addition, the “effectiveness in stabilizing Taq DNA polymerase (comparison)” value on Taq DNA polymerase [3] (97° C., 1M additives, FIG. 5) was “more effective than THP(B) or glycerol”. Besides, the “remaining Taq polymerase activity” value at Taq DNA polymerase [3] (setting [13]) is 50% and 55%; on Taq DNA polymerase [3] (setting [14]) it was 45% and 55%. In addition, the “remaining Taq activity relative to no additives” value on Taq DNA polymerase [3] (60 min incubation at 97° C.) is given as 10 fold.

In the case of `CC1=NCCC(C(=O)O)N1` (stereo not shown) [THP(B), 2-methyl-4-carboxy-3,4,5,6-tetrahydropyrimidine], the “change in melting temperature of poly(dA-dT)” value in the data set with poly(dA-dT) (1-4M THP(B)) is reported as “did not exhibit any change; also recorded: no change”. Besides, the toxicity entry with mammalian cells and in the data set with animals (in vivo) was “not toxic” each time. Also, in the data set with calf thymus DNA (42% GC) (3 or 4M THP(B)), the DNA melting temperature came to 41 °C. In addition, the “temperature range in which all DNAs melt” value in data set [4] (4M THP(B), 39 to 75° C. in its absence) is 40-43 °C. In addition, the “decrease of melting temperature” value in data set [5] (0.5M additive) amounted to 3 EC; in data set [5] (1.0M additive), 6 EC; in data set [6] (0.5M additive), 2 EC; in data set [6] (1.0M additive) it was 3.5 EC. For the same compound, the Tm in data set [5] (0.5 M additive) was 45.0 °C; in [5] (1.0 M additive) it was 42.0 °C; in data set [6] (0.5 M additive), 29.5 °C; in data set [6] (1.0 M additive), 28.0 °C. The “remaining Taq polymerase activity” value on Taq DNA polymerase [3] (setting [13]) is on record as 40%; at Taq DNA polymerase [3] (setting [14]), 20%. The PCR amplification entry in [7] (0.5M THP(B), Td 92° C.) is reported as “amplified sequences were produced only in the presence of THP(B)”; in [7] (1.0M THP(B), Td 89° C., 0.5 units Taq), “markedly lower”; in data set [7] (1.0M THP(B), Td 90° C., 0.5 or 0.75 units Taq), “specific amplified sequence was generated only in the presence of THP(B)”; in [7] (1.0M THP(B), Td 95° C.), “improved PCR specific amplification”. For the same compound, the “yield and specificity of DNA amplification” value in [7] (0.5M THP(B), Td 95° C. and 92° C.) is “improved”.

On to `O=C(O)[C@@H]1CCCN1` [proline, L-Proline], for which the “change in melting temperature of poly(dA-dT)” value in the data set with poly(dA-dT) (1-5M proline) is reported as “did not exhibit any change”; with poly(dA-dT) (5-6.2M proline) it was “small effect”. Also, the “melting lower than DNAs of GC content 42% and 26%” value in the data set with poly(dA-dT) (6.2M proline) is “about 15 °C”. The “range of melting higher than DNAs of GC content 42% and 26%” value in [8] was “about 5 °C”. The DNA melting temperature with calf thymus DNA (42% GC) (6.2M proline) worked out at 27 °C. Also, the PCR performance result in [9] (denaturation temperature 75° C.) is “but not at 75 °C”; in [9] (denaturation temperature 77° C.), “enough for successful PCR”; in data set [11] (denaturation temperature 91° C.) it was “enabled successful PCR”; in data set [11] (denaturation temperature 95° C.), “did not impair PCR performance”. The “proline concentration sufficient to confer stability to Klenow polymerase (and conduct successful PCR)” value in [10] is 3-5.5 M. In addition, the “temperature range in which all DNAs melt” value in data set [4] (6.2M proline, 38 to 78° C. in its absence) is 25-32 °C. In addition, the “Tm values of the tested natural DNAs” value in data set [4] (6.2 M proline, 57-78° C. without) is 28-32 °C. The “effect on Klenow polymerase activity” value on Klenow DNA polymerase [1] is “stimulative”. Further, the “effect on Klenow DNA polymerase activity” value is listed as “only slightly decreased” at Klenow DNA polymerase [1] (listed as L-proline) and “only slightly decrease” on Klenow DNA polymerase [1] (listed as Proline). The “half life of Klenow DNA polymerase relative to no additive” value on Klenow DNA polymerase [12] is 30-50 fold.

As to `C[N+](C)(C)CC(=O)O` [betaine, Betaine, reference compound], the “decrease of melting temperature” value in [5] (1.0M additive) is reported as −2 EC. For the same compound, the Tm in data set [6] (1.0 M additive) amounted to 29.2 °C.
